From ChEMBL document CHEMBL1125405, “Synthesis of alkoxy-substituted diaryl compounds and correlation of ring separation with inhibition of tubulin polymerization: differential enhancement of inhibitory effects under suboptimal polymerization reaction conditions” (J Med Chem, 1992)

Tests used:
[1] = molecular target: T1, Tubulin (Bos taurus, UniProt Q6B856+Q862L2+Q862F3); assay: Inhibition of glutamate-dependent tubulin polymerization at 30 degrees C(0.25 mM MgCl2); format: functional
[2] = test system: HL-60; assay: Cytotoxicity of compound against HL-60 human leukemia cells; format: functional, cell-based
[3] = molecular target: T1, Tubulin; assay: Concentration required to inhibit the extent of glutamate-dependent tubulin polymerization by 50% at 37 degrees C(1.0 mM MgCl2); format: functional
[4] = test system: L1210; assay: Compound was tested for the inhibition of murine L1210 leukemia cells growth by 50%; format: functional, cell-based; details: Mus musculus
[5] = test system: L1210; assay: Compound was tested for the inhibition of L1210 leukemia cells growth […]; format: functional, cell-based; details: Mus musculus

Structure (SMILES)	IC50 [1] [nM]	IC50 [3] [nM]	further results
COc1ccc(CCCc2cc(OC)c(OC)c(OC)c2)cc1O	3000	11000	IC50 [2]: 300 nM; IC50 [4]: 400 nM
CCOc1cc2c(cc1CCCc1ccc(OC)cc1)OCO2	2700		
CCOc1cc2c(cc1/C=C\c1ccc(OC)cc1)OCO2	> 40000		
CCOc1cc2c(cc1C/C=C/c1ccc(OC)cc1)OCO2	1900		
COc1ccc(CCc2cc(OC)c(OC)c(OC)c2)cc1O	1600	3500	IC50 [2]: 50 nM; IC50 [5]: 70 nM
COc1ccc(Cc2cc(OC)c(OC)c(OC)c2)cc1O	2300	7700	IC50 [2]: 100 nM; IC50 [4]: 200 nM
COc1c(-c2ccc(OC)c(=O)cc2)ccc(C=O)c1C=O	1200	2600	
COc1ccc(CCCCc2cc(OC)c(OC)c(OC)c2)cc1O	4400	30000	
COc1ccc(-c2cc(OC)c(OC)c(OC)c2)cc1O	> 40000	> 40000	

Now from value to compound, other results behind:

IC50 [1] [nM]	IC50 [3] [nM]	Structure (SMILES)	further results
8800		COc1ccc(CCc2cc3c(cc2OC)OCO3)cc1	
2500		COc1ccc(C(C)c2cc3c(cc2OC)OCO3)cc1 (stereo not given)	
5400		COc1ccc(Cc2cc3c(cc2OC)OCO3)cc1	
3900		COc1ccc(/C=C/Cc2cc3c(cc2OC)OCO3)cc1	
7500		COc1ccc(CCCCc2cc3c(cc2OC)OCO3)cc1	
3800		CCOc1cc2c(cc1CCc1ccc(OC)cc1)OCO2	
1800		CCOc1cc2c(cc1C(C)c1ccc(OC)cc1)OCO2 (stereo not given)	
2000		CCOc1cc2c(cc1Cc1ccc(OC)cc1)OCO2	
3800		COc1ccc(CCCc2cc3c(cc2OC)OCO3)cc1	
